Patent US20240092758A1, “IMIDAZOLO INDAZOLE COMPOUNDS AS JAK INHIBITORS” (Theravance Biopharma R&D IP, LLC, priority 2021, published 2024)

Experiments:
[1] = biological target: JAK2 (Homo sapiens (Human), UniProt O60674); assay: Biochemical JAK kinase assay (LanthaScreen), JAK2; settings: for Ki: read-out: JAK2 pKi (converted)
Method in brief: (§1)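 LanthaScreen format: phospho-STAT1 (pTyr701) detected with 2 nM Tb antibody after 10 mM EDTA quench. Kinase step used Km-level ATP and 200 nM STAT1 peptide, 1 h at ambient after 1 h pre-incubation. Inhibition fitted to IC50, reported as pKi.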

[2] = tested on: IL-13 induced STAT6 phosphorylation in BEAS-2B human lung epithelial cells; assay: Cellular JAKI potency assay (BEAS-2B); format: cell-based; settings: Homo sapiens, BEAS-2B, BEAS-2B cells, read-out: BEAS2B pIC50 (converted)
Method in brief: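 BEAS-2B cells were preincubated with compound (0.1% DMSO) in HBSS/HEPES/BSA for 1 h at 37 °C, then stimulated with IL-13 (80 ng/mL before addition) for 30 min. After lysis, pSTAT6 (Tyr641) was quantified by AlphaLISA SureFire; IC50 from a 4-parameter fit of percent inhibition, reported as pIC50.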

[3] = biological target: JAK1 (Homo sapiens (Human), UniProt P23458); assay: Biochemical JAK kinase assay (LanthaScreen), JAK1; settings: for Ki: read-out: JAK1 pKi (converted)
JAK1, sequence (P23458 whole entry): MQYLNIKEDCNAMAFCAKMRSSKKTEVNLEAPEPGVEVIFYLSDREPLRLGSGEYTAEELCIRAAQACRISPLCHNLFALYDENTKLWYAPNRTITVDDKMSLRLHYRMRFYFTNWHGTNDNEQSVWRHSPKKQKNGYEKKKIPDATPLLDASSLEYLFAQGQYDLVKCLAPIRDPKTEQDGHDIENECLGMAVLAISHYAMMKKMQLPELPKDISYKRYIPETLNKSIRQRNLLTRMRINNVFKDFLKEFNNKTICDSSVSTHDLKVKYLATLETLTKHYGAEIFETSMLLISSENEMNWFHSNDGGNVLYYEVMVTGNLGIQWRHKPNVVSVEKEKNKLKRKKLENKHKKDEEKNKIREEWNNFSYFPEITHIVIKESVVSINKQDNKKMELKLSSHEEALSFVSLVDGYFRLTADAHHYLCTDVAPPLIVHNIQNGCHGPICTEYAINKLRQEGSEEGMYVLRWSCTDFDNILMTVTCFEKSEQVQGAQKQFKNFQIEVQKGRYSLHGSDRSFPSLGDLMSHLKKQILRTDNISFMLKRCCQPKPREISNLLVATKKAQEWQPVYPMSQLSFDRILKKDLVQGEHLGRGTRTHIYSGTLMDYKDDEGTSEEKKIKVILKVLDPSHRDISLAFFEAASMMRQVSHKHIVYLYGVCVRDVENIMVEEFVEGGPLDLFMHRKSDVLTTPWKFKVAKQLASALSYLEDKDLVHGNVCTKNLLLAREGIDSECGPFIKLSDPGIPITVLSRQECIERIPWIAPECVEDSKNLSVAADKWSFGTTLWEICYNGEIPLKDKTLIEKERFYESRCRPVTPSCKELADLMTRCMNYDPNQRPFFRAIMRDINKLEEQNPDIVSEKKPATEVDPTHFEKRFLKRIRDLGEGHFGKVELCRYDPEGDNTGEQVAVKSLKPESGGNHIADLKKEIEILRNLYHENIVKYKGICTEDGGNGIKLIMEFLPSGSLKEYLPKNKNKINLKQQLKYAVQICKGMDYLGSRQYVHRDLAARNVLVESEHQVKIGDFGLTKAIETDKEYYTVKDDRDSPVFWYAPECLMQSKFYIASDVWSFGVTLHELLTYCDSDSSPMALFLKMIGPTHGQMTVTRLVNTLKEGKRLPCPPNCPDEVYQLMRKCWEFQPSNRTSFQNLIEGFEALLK
Method in brief: as §1

JAK2, sequence (O60674 whole entry): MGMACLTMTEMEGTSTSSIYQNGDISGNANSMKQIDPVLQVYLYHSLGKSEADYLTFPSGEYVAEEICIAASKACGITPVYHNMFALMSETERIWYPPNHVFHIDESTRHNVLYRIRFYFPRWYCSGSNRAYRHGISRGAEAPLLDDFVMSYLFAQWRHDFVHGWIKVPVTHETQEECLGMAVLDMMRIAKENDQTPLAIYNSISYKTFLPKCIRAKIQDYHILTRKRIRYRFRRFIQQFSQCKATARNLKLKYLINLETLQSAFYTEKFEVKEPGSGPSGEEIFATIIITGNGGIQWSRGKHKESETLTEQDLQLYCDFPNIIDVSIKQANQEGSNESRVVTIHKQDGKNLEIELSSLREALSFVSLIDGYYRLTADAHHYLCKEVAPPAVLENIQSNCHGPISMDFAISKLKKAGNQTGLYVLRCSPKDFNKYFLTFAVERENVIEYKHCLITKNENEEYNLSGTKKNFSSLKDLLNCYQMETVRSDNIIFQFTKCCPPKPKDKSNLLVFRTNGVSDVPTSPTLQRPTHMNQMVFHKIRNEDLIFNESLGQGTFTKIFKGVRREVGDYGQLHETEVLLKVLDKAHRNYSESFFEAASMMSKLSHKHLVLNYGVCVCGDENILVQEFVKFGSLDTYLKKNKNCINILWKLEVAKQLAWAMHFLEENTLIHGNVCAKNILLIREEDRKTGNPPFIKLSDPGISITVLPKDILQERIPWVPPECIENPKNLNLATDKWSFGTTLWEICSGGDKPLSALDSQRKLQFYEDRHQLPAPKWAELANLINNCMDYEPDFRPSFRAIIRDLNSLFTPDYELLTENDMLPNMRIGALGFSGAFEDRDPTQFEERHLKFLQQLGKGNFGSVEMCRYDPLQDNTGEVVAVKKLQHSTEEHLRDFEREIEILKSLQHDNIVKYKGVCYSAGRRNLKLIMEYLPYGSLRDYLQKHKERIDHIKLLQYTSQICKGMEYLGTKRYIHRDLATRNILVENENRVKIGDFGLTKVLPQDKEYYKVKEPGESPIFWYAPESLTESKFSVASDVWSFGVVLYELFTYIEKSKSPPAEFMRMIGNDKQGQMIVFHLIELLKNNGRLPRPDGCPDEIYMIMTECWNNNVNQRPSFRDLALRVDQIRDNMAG

| SMILES | Ki [1] | IC50 [2] | Ki [3] | JAK2 pKi [1] | JAK1 pKi [3] |
| --- | --- | --- | --- | --- | --- |
| CCc1cc(O)ccc1-c1ccc2c(-c3nc(C4=C[C@H](C(=O)OC)NC4)c[nH]3)n[nH]c2c1F [Example 250] | 0.1 to 1 nM | 31.6 to 100 nM | 0.1 to 1 nM |  |  |
| CCc1cc(O)ccc1-c1ccc2c(-c3nc(C4=CCN(C5CCC5)C4)c[nH]3)n[nH]c2c1F [Example 303] |  | 10 to 31.6 nM |  | A (A represents a pKi value ≥10 (Ki≤0.1 nM)) | A (A represents a pKi value ≥10 (Ki≤0.1 nM)) |
| CCc1cc(O)ccc1-c1ccc2c(-c3nc(C4=C[C@H](CO)N(Cc5cnoc5)C4)c[nH]3)n[nH]c2c1F [Example 355] | 0.1 to 1 nM | 31.6 to 100 nM | 0.1 to 1 nM |  |  |
| CCc1cc(O)ccc1-c1ccc2c(-c3nc(C4=CC[C@H](C)N(C(C)CO)C4)c[nH]3)n[nH]c2c1F (stereo partly drawn) [Example 259] | 0.1 to 1 nM | 10 to 31.6 nM | 0.1 to 1 nM |  |  |
| CCc1cc(O)ccc1-c1ccc2c(-c3nc(C4=CCCN(C(C)CO)C4)c[nH]3)n[nH]c2c1F (stereo not drawn) [Example 46] | 0.1 to 1 nM | 10 to 31.6 nM | 0.1 to 1 nM |  |  |
| CCc1cc(O)ccc1-c1ccc2c(-c3nc(C4=C[C@H](CC(=O)N5CCN(C)CC5)NC4)c[nH]3)n[nH]c2c1F [Example 373] |  | 31.6 to 100 nM | 0.1 to 1 nM | A (A represents a pKi value ≥10 (Ki≤0.1 nM)) |  |
| CCc1cc(O)ccc1-c1ccc2c(-c3nc(C4=CCN(CC5CNC(=O)O5)CC4)c[nH]3)n[nH]c2c1F (stereo not drawn) [Example 123] | 0.1 to 1 nM | 31.6 to 100 nM | 0.1 to 1 nM |  |  |
| CCc1cc(O)ccc1-c1ccc2c(-c3nc(C4=CCN(Cc5cnn[nH]5)CC4)c[nH]3)n[nH]c2c1 [Example 133] |  | 10 to 31.6 nM | 0.1 to 1 nM | A (A represents a pKi value ≥10 (Ki≤0.1 nM)) |  |
| CCc1cc(O)ccc1-c1ccc2c(-c3nc(C4=CCN(C5CCC5)[C@H]4CO)c[nH]3)n[nH]c2c1F [Example 304] |  | 10 to 31.6 nM |  | A (A represents a pKi value ≥10 (Ki≤0.1 nM)) | A (A represents a pKi value ≥10 (Ki≤0.1 nM)) |
| CCc1cc(O)ccc1-c1ccc2c(-c3nc(C4=CCCN(C5CC(O)C5)C4)c[nH]3)n[nH]c2c1 (stereo not drawn) [Example 43] |  | 3.16 to 10 nM | 0.1 to 1 nM | A (A represents a pKi value ≥10 (Ki≤0.1 nM)) |  |
| CCc1cc(O)ccc1-c1ccc2c(-c3nc(C4=CCN(CCCNC(=O)C(C)C)CC4)c[nH]3)n[nH]c2c1 [Example 117] |  | 3.16 to 10 nM |  | A (A represents a pKi value ≥10 (Ki≤0.1 nM)) | A (A represents a pKi value ≥10 (Ki≤0.1 nM)) |
| CCc1cc(O)ccc1-c1ccc2c(-c3nc(C4=CCN(CC(=O)NC(C)(C)C)CC4)c[nH]3)n[nH]c2c1F [Example 83] | 0.1 to 1 nM | 31.6 to 100 nM | 1 to 10 nM |  |  |
| CCc1cc(O)ccc1-c1ccc2c(-c3nc(C4=CCN(C5COC5)C4)c[nH]3)n[nH]c2c1 [Example 73] |  | 10 to 31.6 nM | 0.1 to 1 nM | A (A represents a pKi value ≥10 (Ki≤0.1 nM)) |  |
| CCc1cc(O)ccc1-c1ccc2c(-c3nc(C4=CC[C@H](C)N(CCC(C)(C)O)C4)c[nH]3)n[nH]c2c1F [Example 260] | 0.1 to 1 nM | 10 to 31.6 nM | 0.1 to 1 nM |  |  |
| CCc1cc(O)ccc1-c1ccc2c(-c3nc(C4=CCCN(CCN5CCNC5=O)C4)c[nH]3)n[nH]c2c1 [Example 124] |  | 3.16 to 10 nM |  | A (A represents a pKi value ≥10 (Ki≤0.1 nM)) | A (A represents a pKi value ≥10 (Ki≤0.1 nM)) |
| CCc1cc(O)c(F)cc1-c1ccc2c(-c3nc(C4=CCNCC4)c[nH]3)n[nH]c2c1 [Example 284] |  | 3.16 to 10 nM |  | A (A represents a pKi value ≥10 (Ki≤0.1 nM)) | A (A represents a pKi value ≥10 (Ki≤0.1 nM)) |
| CCc1cc(O)ccc1-c1ccc2c(-c3nc(C4=CCN(CCN5CCNC5=O)CC4)c[nH]3)n[nH]c2c1 [Example 118] |  | 31.6 to 100 nM |  | A (A represents a pKi value ≥10 (Ki≤0.1 nM)) | A (A represents a pKi value ≥10 (Ki≤0.1 nM)) |

| SMILES | Ki [1] | IC50 [2] | Ki [3] | JAK2 pKi [1] | JAK1 pKi [3] |
| --- | --- | --- | --- | --- | --- |
| CCc1cc(O)ccc1-c1ccc2c(-c3nc(C4=CCN(CCCNC(C)=O)CC4)c[nH]3)n[nH]c2c1 [Example 104] |  | 3.16 to 10 nM |  | A (A represents a pKi value ≥10 (Ki≤0.1 nM)) | A (A represents a pKi value ≥10 (Ki≤0.1 nM)) |
| CCc1cc(O)ccc1-c1ccc2c(-c3nc(C4=CCN(Cc5cn[nH]c5)CC4)c[nH]3)n[nH]c2c1F [Compound 11, 4-(3-(4-(1-((1H-pyrazol-4-yl)methyl)-1,2,3,6-tetrahydropyridin-4-yl)-1H-imidazol-2-yl)-7-fluoro-1H-indazol-6-yl)-3-ethylphenol] |  | 10 to 31.6 nM | 0.1 to 1 nM | A (A represents a pKi value ≥10 (Ki≤0.1 nM)) |  |
| CCc1cc(O)ccc1-c1ccc2c(-c3nc(C4=C[C@H](CC(=O)OC(C)C)NC4)c[nH]3)n[nH]c2c1F [Example 309] | 0.1 to 1 nM | 10 to 31.6 nM | 0.1 to 1 nM |  |  |
| CCc1cc(O)ccc1-c1ccc2c(-c3nc(C4=CCCN(CCS(=O)(=O)NC)C4)c[nH]3)n[nH]c2c1 [Example 89] |  | 10 to 31.6 nM | 0.1 to 1 nM | A (A represents a pKi value ≥10 (Ki≤0.1 nM)) |  |
| CCc1cc(O)ccc1-c1ccc2c(-c3nc(C4=CCCN(C(C)C5CC(O)C5)C4)c[nH]3)n[nH]c2c1F (stereo not drawn) [Example 66] |  | 10 to 31.6 nM | 0.1 to 1 nM | A (A represents a pKi value ≥10 (Ki≤0.1 nM)) |  |
| CCc1cc(O)ccc1-c1ccc2c(-c3nc(C4=CCN(CC5COC5)CC4)c[nH]3)n[nH]c2c1F [Example 60] |  | 10 to 31.6 nM | 0.1 to 1 nM | A (A represents a pKi value ≥10 (Ki≤0.1 nM)) |  |
| CCc1cc(O)ccc1-c1ccc2c(-c3nc(C4=CCN(C[C@@H]5COCCN5)C4)c[nH]3)n[nH]c2c1 [Example 200] |  | 10 to 31.6 nM | 0.1 to 1 nM | A (A represents a pKi value ≥10 (Ki≤0.1 nM)) |  |
| CCc1cc(O)ccc1-c1ccc2c(-c3nc(C4=CCCN(C5CC(O)C5)C4)c[nH]3)n[nH]c2c1F (stereo not drawn) [Compound 10, 3-ethyl-4-(7-fluoro-3-(4-(1-(3-hydroxycyclobutyl)-1,2,5,6-tetrahydropyridin-3-yl)-1H-imidazol-2-yl)-1H-indazol-6-yl)phenol] | 0.1 to 1 nM | 10 to 31.6 nM | 0.1 to 1 nM |  |  |
| CCc1cc(O)ccc1-c1ccc2c(-c3nc(C4=CCCN(CCNS(C)(=O)=O)C4)c[nH]3)n[nH]c2c1 [Example 108] |  | 10 to 31.6 nM | 0.1 to 1 nM | A (A represents a pKi value ≥10 (Ki≤0.1 nM)) |  |
| CCc1cc(O)ccc1-c1ccc2c(-c3nc(C4=C[C@@H](C(=O)N5CC(N(C)C)C5)NC4)c[nH]3)n[nH]c2c1F [Example 252] | 0.1 to 1 nM | 100 to 316 nM | 0.1 to 1 nM |  |  |
| CCc1cc(O)ccc1-c1ccc2c(-c3nc(C4=C(C(=O)OC(C)C)CCNC4)c[nH]3)n[nH]c2c1F [Example 315] | 0.1 to 1 nM | 10 to 31.6 nM | 0.1 to 1 nM |  |  |
| CCc1cc(O)ccc1-c1ccc2c(-c3nc(C4=CCN(CCCNS(C)(=O)=O)CC4)c[nH]3)n[nH]c2c1 [Example 103] |  | 10 to 31.6 nM |  | A (A represents a pKi value ≥10 (Ki≤0.1 nM)) | A (A represents a pKi value ≥10 (Ki≤0.1 nM)) |
| CCc1cc(O)ccc1-c1ccc2c(-c3nc(C4=CCCN(C(=O)CN)C4)c[nH]3)n[nH]c2c1 [Example 164] | 0.1 to 1 nM | 10 to 31.6 nM | 0.1 to 1 nM |  |  |
| CCc1cc(O)ccc1-c1ccc2c(-c3nc(C4=CCNC5(CC5)C4)c[nH]3)n[nH]c2c1 [Example 343] | 0.1 to 1 nM | 10 to 31.6 nM | 0.1 to 1 nM |  |  |
| CCc1cc(O)ccc1-c1ccc2c(-c3nc(C4=CCCN(CCNS(C)(=O)=O)C4)c[nH]3)n[nH]c2c1F [Example 111] | 0.1 to 1 nM | 10 to 31.6 nM | 0.1 to 1 nM |  |  |
| CCc1cc(O)ccc1-c1ccc2c(-c3nc(C4=C(C(=O)N(C)C)CNCC4)c[nH]3)n[nH]c2c1F [Example 379] |  | 31.6 to 100 nM | 0.1 to 1 nM | A (A represents a pKi value ≥10 (Ki≤0.1 nM)) |  |
| CCc1cc(O)ccc1-c1ccc2c(-c3nc(C4=CCN(CCC5(O)CCC5)C4)c[nH]3)n[nH]c2c1F [Example 308] |  | 10 to 31.6 nM | 0.1 to 1 nM | A (A represents a pKi value ≥10 (Ki≤0.1 nM)) |  |
